The results in this text go back to a melting point compilation (Tetko et al.; mined from patent text by program, amines drawn as free bases though some values may be those of a salt).

Molecules are shown by their SMILES.

In general, melting point refers to the temperature of the solid-liquid transition.

The compound `CCOC(=O)c1cnc2ccc(OC)cc2c1Cl` returned a melting point of 93.7 to 95.7 °C.
Regarding `O=Cc1c[nH]c2c1ccc1c2[nH]c2cc(Cl)cc(Cl)c21`, the melting point is more than 250 °C.
Then `CCCC1=CC(NC)=Nc2ccc(Cl)cc2C(c2ccccc2)=[N+]1[O-]`, with 104 to 106 °C.
The compound `COc1ccc(C(C#N)=NOS(=O)(=O)C(C)C)cc1` returned a melting point of 72 °C.
In the case of `CC(=O)SCC(Cc1c(Cl)cccc1Cl)C(=O)NN1CCOCC1` (configuration not stated), the melting point came out at 175 °C.
As to `CCN1CCN(C(C)C(=O)NC2(c3ccc4occc4c3)C(=O)Nc3cc(Cl)cc(Cl)c32)CC1` (single isomer, unassigned; (+)), the melting point was 137 to 138 °C.
The compound `CCc1nc(C2CC2)c(C(=O)O)n1Cc1ccc2oc(-c3ccccc3C(=O)NS(=O)(=O)c3ccccc3)c(Br)c2c1` yielded a melting point of 176 to 178 °C.
Then `Cc1cc(C)c(F)cc1F`, with 30 to 31 °C.
Turning to `COc1ccc([N+](=O)[O-])cc1C(O)OC` (configuration not stated), the melting point was in the range of 147 to 148 °C.
`COc1ccc(OC)c(C(=O)c2cccc(OC)c2C(=O)O)c1` gave a melting point of 180 to 182 °C.
Turning to `CCN1C(=O)C(C)(C)C(=O)N(C)c2cc(CN(CCn3ccc4oc(C(F)(F)F)cc4c3=O)Cc3cccnc3C)ccc21`, the melting point fell in the range of 132 to 134 °C.
Take `CCOC(=O)c1cn(Cc2ccc(Oc3ccccc3)cc2)nc1OCc1nc(-c2ccccc2)oc1C`: the melting point lay in the range of 96 to 97 °C.
Take `COc1ccc(Cn2c(=O)c3c(c4ccccc42)OC(C)(C)[C@@H](Br)[C@@H]3O)cc1` (relative stereo): the melting point is 146 to 147 °C.
`Cc1ccccc1CN1CCC(n2c(C)c(-c3ccccc3)[nH]c2=O)CC1` yielded a melting point of 218 to 220 °C.
With `COC(=O)C1=C(C)NC(C)=C(C(=O)OC(C)CCl)C1c1cccc([N+](=O)[O-])c1` (configuration not stated), the melting point fell in the range of 95 to 102 °C.
With `NC(=S)NCC(c1ccccc1)c1ccccc1` the figure was 205 to 207 °C; with `CCC(C)(C)c1ccc(Oc2cccc(C#N)c2C#N)c(C(C)(C)CC)c1`, 143 to 144 °C.
Take `CCCc1ccccc1OCCCCCOc1coc(C(=O)OC)cc1=O`: the melting point is 49 to 50 °C.
With `COc1ccc2c(c1)c(C1CCN(Cc3ccc(OC)c(C(=O)O)c3)CC1)cn2CCc1ccsc1` the figure was 229 to 230 °C.
Compound `O=C1C2=C(SCCS2)C(O)N1c1ccc2c(Cl)ccnc2n1` (configuration not stated) displayed a melting point of 300 to 305 °C.
For the compound `CC(C)(CO)NS(=O)(=O)c1cc(NC(=O)c2cnn3c(C(F)(F)F)cc(-c4ccc(C(F)(F)F)cc4)nc23)c(Cl)s1`, the melting point was found to be 223 °C.
Then `Cc1nc2c(c3c1[nH]c1ccccc13)C(=O)CC(C)C2` (configuration not stated), with 218 to 219 °C.
For `CC(C)Oc1ccc2c(c1)N(CCCN1CCC(CCO)CC1)c1cccc(S(C)(=O)=O)c1S2`, the melting point came to 50 °C.
The compound `C=C(C)c1ccccc1S(=O)(=O)NC(=O)Nc1nc(C)cc(C)n1` gave a melting point of 177 to 183 °C.
`O=C(O)c1ccc2c(c1)C(=O)c1cc3c(cc1OC2)OCO3` yielded a melting point of 320 to 321 °C.
The compound `COc1cc2c(cc1Nc1ncc(Cl)c(Nc3ccc(N(C)C)cc3OC)n1)CCN(CCN1CCOCC1)CC2` registered a melting point of 115 °C.
`CN(C)c1cccc(OC(=O)NC2C(=O)N(CCC3C4CC5CC(C4)CC3C5)c3ccccc3N(c3ccccc3)C2=O)c1` (configuration not stated) registered a melting point of 188 to 189 °C.
The compound `CSc1nc(SC)nc(-n2c(C)nc3ccccc32)n1` showed a melting point of 176 to 179 °C.
With `CCc1cc(C(=O)c2ccccc2Cl)c(-n2cnnc2CNC(=O)c2cc3ccccc3n2CC(=O)O)s1` the figure was 218 to 220 °C.
In turn, `N#CC(=NO)C(=O)c1ccccc1` showed a melting point of 117 to 119 °C.
With `CSC(=S)OC(C(=O)O)c1ccccc1` (configuration not stated) the figure was 109 to 110 °C.
With `CCCOc1ccc(F)c2c(=O)c(-c3ccc(OC)cc3)cn(CC(=O)NC3CCNCC3)c12` the figure was 226 to 228 °C.
